Like-named read-outs stand apart in the source and are kept apart here.
Assays:
[1] = target: His-tagged recombinant human Gal-3 (hGal-3) (Homo sapiens, UniProt P17931); experiment: Gal-3 HTRF assay (His-tagged hGal-3 / B-ASF); format: binding; conditions: 15 nM hGal-3, 15 nM B-ASF
Method: ASSAY BUFFER Composition: 25 mM HEPES, 100 mM NaCl, 0.005% Tween 20, 0.05% BSA prepared in sterile water (all reagents from Sigma).
• Positive Control: 100% DMSO (1 μL)+His-tagged hGal-3 (20 μL)+B-ASF (20 μL)+Anti-His Terbium Antibody (5 μL)+Strep d2 Antibody (5 μL). • Negative Control: 100% DMSO (1 μL)+His-tagged hGal-3 (20 μL)+Anti His Terbium Antibody (5 μL)+Strep d2 Aantibody (5 μL). Stocks Preparation:
PROTOCOL: The Gal-3 assays were performed in 384 white Opti plates in three replicates at room temperature with gentle shaking at 250-300 rpmFrom the original stocks, […] working stock concentrations of His-tagged recombinant human Gal-3 (hGal-3) and that of B-ASF were prepared. From the working stock, 20 μL of hGal-3 (15 nM) and 20 μL B-ASF (15 nM) were added to the plates. In Negative Control, only hGal-3 was added. A concentration range of 50× working stocks were prepared for the compounds in 100% DMSO. Aliquots of luL of the compounds were added to the wells and pre-incubated with 20 μL hGal-3 per well for 30 minutes Then 20 μL B-ASF wereadded and incubated for another 1 hour. To detect the signal, 5 μL (final conc. of 1.0 nM) terbium labelled Anti-His antibody was added and incubated for 30 min followed by adding 5 μL (final conc. of 20 nM) Streptavidin d2 and incubation for another 1 hour. The assay signal was detected using HTRF screen protocol (Excitation wavelength=340 nm, emission wavelength=615 nm/665 nm) on Envision 2104 Multilabel Reader. Data analysed using Toolset and Curve Master. Results are reported in the experimental section (IC50 in μM).

[2] = target: T1, Gal3 (Human Galectin-3) in THP-1 cells (Homo sapiens, UniProt P17931); experiment: ELISA Gal3 Degradation Assay in THP-1 Cells; format: cell-based; conditions: 48 hours, culture media Gal3 by ELISA
T1 construct: host or cells: THP-1
Method: [formula] ELISA Gal3 Degradation Assay in THP-1 Cells
THP-1 cells (ATCC, Cat #TIB-202), a human monocyte cell line derived from leukemia were plated at 2E6 cells/mL in 200 uL/well of RPMI 1640 (ThermoFisher, Cat #11835) in 96-well plates. Cells were treated with DMSO as a control and various concentrations of compounds for 48 hours. After the treatment, the culture media were collected. The PBS washed cell pellets were lysed in Lysis Buffer (Cell Signaling, Cat #9803) supplemented with 1XProtease Inhibitor Cocktail (Cell Signaling, Cat #5872). Gal3 levels in culture media and cell lysates were quantified by ELISA assays (Human Galectin-3 DuoSet ELISA kit, R&D Systems, Cat #DY1154) according to manufacturer's instructions. The cell culture media were also used for the assessment of cellular toxicity (LDH Assay kit, R&D Systems, DY994). The IC50 (degradation concentration at 50%) values were calculated based on the cellular Gal3 protein levels using DMSO as the control.

[3] = target: T2, hCRBN (NanoLuc-CRBN fusion construct in HEK-293 cells) (Homo sapiens, UniProt Q96SW2); experiment: CRBN BRET Target Engagement; format: cell-based; conditions: NanoLuc-CRBN transfected HEK-293 cells, BRET with CRBN Probe
T2 construct: expressed in transfected cells; host or cells: HEK-293
Method: CRBN BRET Target Engagement (hCRBN IC50 (μM))
NanoLuc-CRBN fusion construct was transfected in HEK-293 cells using FuGENE HD (Promega) according to the manufacturer's protocol. In brief, Nluc-CRBN was diluted into Transfection Carrier DNA (Promega) 1:10 (mass/mass), to which FuGENE HD was 1:3 (μg DNA:μL FuGENE HD). One part (vol) of DNA:FuGENE HD complexes were combined with 20 parts (vol) of HEK-293 cells suspended at a density of […]. Cells were incubated for ˜20 hr at 37° C./5% CO2. Following transfection, cells were washed and resuspended at 200,000 cells/mL in OptiMEM without phenol red (Gibco).
For BRET measurements, cells were seeded in a 384-well nonbinding surface plate (Corning) plate for a final count of 10,000 cells/well. Compounds were dissolved at 10 mM in dimethylsulfoxide (DMSO) and evaluated at eleven concentrations using a high concentration of […]. CRBN Probe was used for equilibrium measurements, employing a final concentration of approximately EC50-80. For live-cell measurements, 20 nM of CRBN Probe was added. For the live-cell assay conditions, the plates were incubated for 2 hours at 37° C./5% CO2. NanoBRET NanoGlo Substrate and Extracellular Nanoluc Inhibitor (Promega) were added according to manufacturer's guidelines. For lytic cell measurements, digitonin was added to the cells to a final concentration of 50 μg/mL and 20 nM of CRBN Probe was added. To measure NanoBRET in permeabilized cells, extracellular Nluc inhibitor was omitted during the detection step. For all BRET experiments, the Envision 2015 (Perkin Elmer) equipped with a BRET2 Enh mirror, BRET 647 nM/75 nM Bandwidth and BC703 460 nM/80 nM Bandwidth filters was used for readouts. Each read was integrated for 0.5 s.
To determine compound potency (IC50), BRET ratios for each dilution series was first normalized to a % Inhibition value via Equation 1, where “S” represents Sample BRET, “B” represents Background BRET, and “T” represents Total BRET. In this equation, the background control (B) consists of NanoLuc-CRBN expressing cells and no CRBN Probe. The total BRET Ratio (T) consists of NanoLuc-CRBN expressing cells, CRBN Probe, and an amount of DMSO at a concentration equivalent to that added when testing compounds.
Following normalization, the percent inhibition values are plotted as a function of compound concentration and fit to Equation 2. […]

[4] = test 1, read-out: Supernatant (IC50) test 1
[5] = test 2, read-out: Supernatant (IC50) test 2

T2 sequence (Q96SW2 whole entry, the tested form may be a part): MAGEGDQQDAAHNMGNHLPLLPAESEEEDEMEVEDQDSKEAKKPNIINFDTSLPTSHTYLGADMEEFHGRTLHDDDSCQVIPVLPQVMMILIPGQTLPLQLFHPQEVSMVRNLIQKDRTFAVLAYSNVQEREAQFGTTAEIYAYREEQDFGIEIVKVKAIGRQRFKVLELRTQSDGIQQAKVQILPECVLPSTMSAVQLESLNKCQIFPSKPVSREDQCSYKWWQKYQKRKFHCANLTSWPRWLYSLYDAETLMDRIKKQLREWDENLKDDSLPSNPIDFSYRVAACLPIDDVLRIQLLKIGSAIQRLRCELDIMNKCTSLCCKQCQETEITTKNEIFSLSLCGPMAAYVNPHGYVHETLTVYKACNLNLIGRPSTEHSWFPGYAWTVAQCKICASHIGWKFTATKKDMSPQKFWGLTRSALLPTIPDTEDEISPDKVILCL
T1 sequence (P17931 whole entry): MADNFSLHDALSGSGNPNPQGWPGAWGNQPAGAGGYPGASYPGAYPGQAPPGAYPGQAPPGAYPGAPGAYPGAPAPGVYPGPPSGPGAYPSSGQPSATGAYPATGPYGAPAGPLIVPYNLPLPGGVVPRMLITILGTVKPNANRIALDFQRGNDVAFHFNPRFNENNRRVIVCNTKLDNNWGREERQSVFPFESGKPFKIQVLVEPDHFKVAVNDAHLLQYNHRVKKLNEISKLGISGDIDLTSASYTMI
Chain of His-tagged recombinant human Gal-3 (hGal-3) (P17931 whole entry): as above

| SMILES | IC50 [1] [nM] | IC50 [3] [nM] | IC50 [2, 4] [nM] | IC50 [2, 5] [nM] |
| --- | --- | --- | --- | --- |
| Cc1nc([C@@H]2O[C@H](CO)[C@H](O)[C@H](n3cc(-c4cc(F)c(Cl)c(F)c4)nn3)[C@H]2OCC(=O)N[C@H]2C[C@@H](Oc3ccc(C(=O)Nc4ccc5c(c4)CN(C4CCC(=O)NC4=O)C5=O)cc3)C2)n(-c2cc(Cl)ccc2C(F)(F)F)n1 (stereo partly drawn) [Example 3, 4-(cis-3-(2-(((2S,3R,4S,5R,6R)-2-(1-(5-Chloro-2-(trifluoromethyl)phenyl)-3-methyl-1H-1,2,4-triazol-5-yl)-4-(4-(4-chloro-3,5-difluorophenyl)-1H-1,2,3-triazol-1-yl)-5-hydroxy-6-(hydroxymethyl)tetrahydro-2H-pyran-3-yl)oxy)acetamido)cyclobutoxy)-N-(2-(2,6-dioxopiperidin-3-yl)-1-oxoisoindolin-5-yl)benzamide] | 70 | 126 | < 10 | 48 |
| Cc1nc([C@@H]2O[C@H](CO)[C@H](O)[C@H](n3cc(-c4cc(F)c(Cl)c(F)c4)nn3)[C@H]2OCC(=O)N[C@H]2C[C@@H](Oc3ccc(C(=O)Nc4ccc5c(c4)CN(C4CCC(=O)NC4=O)C5=O)nc3)C2)n(-c2cc(Cl)ccc2C(F)(F)F)n1 (stereo partly drawn) [Example 4, 5-(cis-3-(2-(((2S,3R,4S,5R,6R)-2-(1-(5-Chloro-2-(trifluoromethyl)phenyl)-3-methyl-1H-1,2,4-triazol-5-yl)-4-(4-(4-chloro-3,5-difluorophenyl)-1H-1,2,3-triazol-1-yl)-5-hydroxy-6-(hydroxymethyl)tetrahydro-2H-pyran-3-yl)oxy)acetamido)cyclobutoxy)-N-(2-(2,6-dioxopiperidin-3-yl)-1-oxoisoindolin-5-yl)picolinamide] | 81 | 174 | 68 | 96 |
| Cc1nc([C@@H]2O[C@H](CO)[C@H](O)[C@H](n3cc(-c4cc(F)c(Cl)c(F)c4)nn3)[C@H]2OCC(=O)N[C@H]2C[C@@H](Oc3ccc(C(=O)Nc4ccc5c(c4)CN([C@H]4CCC(=O)NC4=O)C5=O)nc3)C2)n(-c2cc(Cl)ccc2C(F)(F)F)n1 [Example 5, 5-(cis-3-(2-(((2S,3R,4S,5R,6R)-2-(1-(5-chloro-2-(trifluoromethyl)phenyl)-3-methyl-1H-1,2,4-triazol-5-yl)-4-(4-(4-chloro-3,5-difluorophenyl)-1H-1,2,3-triazol-1-yl)-5-hydroxy-6-(hydroxymethyl)tetrahydro-2H-pyran-3-yl)oxy)acetamido)cyclobutoxy)-N-(2-((S)-2,6-dioxopiperidin-3-yl)-1-oxoisoindolin-5-yl)picolinamide] | 84 | 39 | < 10 | < 10 |
| Cc1nc([C@@H]2O[C@H](CO)[C@H](O)[C@H](n3cc(-c4cc(F)c(Cl)c(F)c4)nn3)[C@H]2OCC(=O)N[C@H]2C[C@@H](Oc3ccc(C(=O)Nc4ccc5c(c4)CN([C@@H]4CCC(=O)NC4=O)C5=O)nc3)C2)n(-c2cc(Cl)ccc2C(F)(F)F)n1 [Example 6, 5-(cis-3-(2-(((2S,3R,4S,5R,6R)-2-(1-(5-chloro-2-(trifluoromethyl)phenyl)-3-methyl-1H-1,2,4-triazol-5-yl)-4-(4-(4-chloro-3,5-difluorophenyl)-1H-1,2,3-triazol-1-yl)-5-hydroxy-6-(hydroxymethyl)tetrahydro-2H-pyran-3-yl)oxy)acetamido)cyclobutoxy)-N-(2-((R)-2,6-dioxopiperidin-3-yl)-1-oxoisoindolin-5-yl)picolinamide] | 74 | > 50000 | 39 | 15 |
| Cc1nc([C@@H]2O[C@H](CO)[C@H](O)[C@H](n3cc(-c4cc(F)c(Cl)c(F)c4)nn3)[C@H]2OCC(=O)N2CC(Oc3ccc(C(=O)Nc4ccc5c(c4)CN(C4CCC(=O)NC4=O)C5=O)cc3)C2)n(-c2cc(Cl)ccc2C(F)(F)F)n1 (stereo partly drawn) [Example 8, 4-((1-(2-(((2S,3R,4S,5R,6R)-2-(1-(5-Chloro-2-(trifluoromethyl)phenyl)-3-methyl-1H-1,2,4-triazol-5-yl)-4-(4-(4-chloro-3,5-difluorophenyl)-1H-1,2,3-triazol-1-yl)-5-hydroxy-6-(hydroxymethyl)tetrahydro-2H-pyran-3-yl)oxy)acetyl)azetidin-3-yl)oxy)-N-(2-(2,6-dioxopiperidin-3-yl)-1-oxoisoindolin-5-yl)benzamide] | 48 | 1420 | 281 | 38 |
| Cc1nc([C@@H]2O[C@H](CO)[C@H](O)[C@H](n3cc(-c4cc(F)c(Cl)c(F)c4)nn3)[C@H]2OCC(=O)N2Cc3ccc(C(=O)Nc4ccc5c(c4)CN(C4CCC(=O)NC4=O)C5=O)cc3C2)n(-c2cc(Cl)ccc2C(F)(F)F)n1 (stereo partly shown) [Example 19] | 51 | 17 | – | – |

The next lines start with results.

| IC50 [1] [nM] | IC50 [3] [nM] | SMILES | IC50 [2, 4] [nM] | IC50 [2, 5] [nM] |
| --- | --- | --- | --- | --- |
| 212 | 2160 | Cc1nc([C@@H]2O[C@H](CO)[C@H](O)[C@H](n3cc(-c4cc(F)c(Cl)c(F)c4)nn3)[C@H]2OCC(=O)N(CCl)CCCOc2ccc(C(=O)Nc3ccc4c(c3)CN(C3CCC(=O)NC3=O)C4=O)cc2)n(-c2cc(Cl)ccc2C(F)(F)F)n1 (stereo partly shown) [Example 24] | – | – |
| 98 | 10400 | Cc1nc([C@@H]2O[C@H](CO)[C@H](O)[C@H](n3cc(-c4cc(F)c(Cl)c(F)c4)nn3)[C@H]2OCC(=O)N2CC(Oc3ccc(C(=O)Nc4ccc5c(c4)CN(C4CCC(=O)N(C)C4=O)C5=O)cc3)C2)n(-c2cc(Cl)ccc2C(F)(F)F)n1 (stereo partly shown) [Example 28] | – | – |
| 160 | 350 | Cc1nc([C@@H]2O[C@H](CO)[C@H](O)[C@H](n3cc(-c4cc(F)c(Cl)c(F)c4)nn3)[C@H]2OCC(=O)N2CC3(CC(COc4ccc(C(=O)Nc5ccc6c(c5)CN(C5CCC(=O)NC5=O)C6=O)cc4)C3)C2)n(-c2cc(Cl)ccc2C(F)(F)F)n1 (stereo partly shown) [Example 29] | – | – |
